In PubChem BioAssay AID1033 (Sanford-Burnham Center for Chemical Genomics, 2008):
Activity calls are given as the source filed them. No rule for the calls is given here.

Each compound was assayed against Chaperone protein DnaK (Escherichia coli (strain K12)) (UniProt P0A6Y8) (assay: E. coli DnaK SBD ligand binding – biophysical, NMR, chaperone (AID 1033)). Settings: Purified DnaK SBD.
Sequence of Chaperone protein DnaK (Escherichia coli (strain K12)) (P0A6Y8 whole entry, looked up): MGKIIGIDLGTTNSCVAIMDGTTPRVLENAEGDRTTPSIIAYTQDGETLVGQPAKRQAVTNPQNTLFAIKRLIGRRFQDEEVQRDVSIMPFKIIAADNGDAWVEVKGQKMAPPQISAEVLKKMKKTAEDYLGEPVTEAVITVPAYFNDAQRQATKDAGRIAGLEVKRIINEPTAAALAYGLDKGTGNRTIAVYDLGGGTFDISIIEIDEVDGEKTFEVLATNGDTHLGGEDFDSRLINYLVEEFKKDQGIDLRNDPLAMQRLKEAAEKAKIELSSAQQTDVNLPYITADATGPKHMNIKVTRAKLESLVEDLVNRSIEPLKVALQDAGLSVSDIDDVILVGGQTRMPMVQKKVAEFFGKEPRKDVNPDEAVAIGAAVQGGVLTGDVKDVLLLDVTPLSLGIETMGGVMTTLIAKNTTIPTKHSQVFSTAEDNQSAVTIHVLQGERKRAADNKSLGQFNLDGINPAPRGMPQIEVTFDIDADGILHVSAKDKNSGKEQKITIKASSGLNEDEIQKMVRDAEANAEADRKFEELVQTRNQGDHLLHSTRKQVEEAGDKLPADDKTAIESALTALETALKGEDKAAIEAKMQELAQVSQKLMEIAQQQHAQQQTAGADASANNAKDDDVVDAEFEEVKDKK
In the case of `Cc1c(CO)cnn1-c1ccc(F)cc1`, the Kd is reported as > 4 mM (inactive).
With `CC(=O)Nc1ccn(-c2ccccc2)n1` the Kd was > 4 mM (inactive).
For `NC(=O)c1ccccc1N1CCCCC1`, the Kd was > 4 mM (inactive).
With `O=C1CC(=O)N(c2ccccc2F)C(=S)N1` the Kd was > 4 mM (inactive).
`Cc1cc(N2C(=O)CCC2=O)n(-c2ccccc2)n1` was tested, and the Kd was > 4 mM (inactive).
`N#Cc1cc2ccccc2nc1N` was tested, and the Kd was > 4 mM (inactive).
For `NS(=O)(=O)c1ccc(NC(=O)C2CC2)cc1`, the Kd was > 4 mM (inactive).
In the case of `O=C(NCCCSc1ncccn1)Nc1ncccn1`, the Kd is reported as > 4 mM (inactive).
`NC(=O)C1CCN(c2ncnc(N)c2[N+](=O)[O-])CC1` was tested, and the Kd was > 4 mM (inactive).
With `CC(C)[C@@H]1CC[C@@H](C)C[C@H]1O` the Kd was > 4 mM (inactive).
With `CCc1ccccc1OCc1nnc(N)s1` the Kd was > 4 mM (inactive).
In the case of `Cc1cccc(OCc2nnc(N)s2)c1`, the Kd is reported as > 4 mM (inactive).
With `CCC(C)OC1CCS(=O)(=O)C1` (centres undefined) the Kd was > 4 mM (inactive).
`O=c1ccc2cc(O)c(O)cc2o1` was tested, and the Kd was > 4 mM (inactive).
For `CC(C)CC(=O)Nc1c[nH]c(=O)[nH]c1=O`, the Kd was > 4 mM (inactive).
With `CC(=O)Nc1ccncc1NC(C)=O` the Kd was > 4 mM (inactive).
With `COC(=O)Cc1csc(N)n1` the Kd was > 4 mM (inactive).
In the case of `O=c1ccnc(Nc2ccccc2O)[nH]1`, the Kd is reported as > 4 mM (inactive).
With `COc1ccccc1NC(=O)C1CCCCC1` the Kd was > 4 mM (inactive).
For `CCOC(=O)c1c(C)cc(O)cc1O`, the Kd was > 4 mM (inactive).
For `O=S(=O)(c1ccc(F)c(Cl)c1)N1CCCC1`, the Kd was > 4 mM (inactive).
With `CNC(=O)C(=O)Nc1c(C)cccc1C` the Kd was > 4 mM (inactive).
With `O=C(CCc1ccc(O)cc1)c1c(O)cc(O)cc1O` the Kd was > 4 mM (inactive).
With `Cn1c(=O)c2[nH]c(Nc3ccccc3)nc2n(C)c1=O` the Kd was > 4 mM (inactive).
For `CCn1nnc(NC(=O)c2cc3ccccc3o2)n1`, the Kd was > 4 mM (inactive).
With `Cc1ccc(C)n1-c1ccc(C(=O)N2CCOCC2)cc1` the Kd was > 4 mM (inactive).
In the case of `COc1ccc2[nH]cc(CCNC(C)=O)c2c1`, the Kd is reported as > 4 mM (inactive).
`O=C(O)CC[N+](=O)[O-]` was tested, and the Kd was > 4 mM (inactive).
With `O=C1C(=O)N(CNc2ncccn2)c2ccccc21` the Kd was > 4 mM (inactive).
In the case of `c1ccc(-n2nnnc2-n2cnc3ccccc32)cc1`, the Kd is reported as > 4 mM (inactive).
With `OCCOc1ccc(C2=NCCO2)cc1` the Kd was > 4 mM (inactive).
For `O=C(O)c1ccc2[nH]c3c(c2c1)CSCC3`, the Kd was > 4 mM (inactive).
In the case of `CC(=O)NCc1nc2ccccc2[nH]1`, the Kd is reported as > 4 mM (inactive).
In the case of `COc1c2ccccc2nc2occc12`, the Kd is reported as > 4 mM (inactive).
`CCC(C)C(=O)OC1[C@@H]2CC3=C4CC(=O)O[C@@H](c5ccoc5)[C@]4(C)CCC3C(C)(C2=O)[C@@H](CC(=O)OC)C1(C)C` (some centres undefined) was tested, and the Kd was > 4 mM (inactive).
In the case of `CCC(C)C(=O)O[C@H]1[C@H](O)C2C(CN3CC(C)CCC3[C@@]2(C)O)C2C[C@]34O[C@]5(O)C(OC(=O)C(C)(O)C(C)O)CC[C@@]3(C)C5C(OC(C)=O)[C@@H](OC(C)=O)C4[C@@]21O` (some centres undefined), the Kd is reported as > 4 mM (inactive).
`CC(=O)Nn1c(=O)[nH]c2ccccc2c1=O` was tested, and the Kd was > 4 mM (inactive).
For `O=c1ccn([C@@H]2O[C@H](COP(=O)(O)OP(=O)(O)OP(=O)(O)O)[C@@H](O)[C@H]2O)c(=O)[nH]1`, the Kd was > 4 mM (inactive).
In the case of `CCOCC(=O)N1CCc2ccccc21`, the Kd is reported as > 4 mM (inactive).
In the case of `NC(=O)CSc1nnc2ccc3ccccc3n12`, the Kd is reported as > 4 mM (inactive).
In the case of `Cc1cc(C)nc(/N=C(/N)N2CCC(C(N)=O)CC2)n1`, the Kd is reported as > 4 mM (inactive).
With `CC(=O)c1sc(NC(=O)C=C(C)C)nc1C` the Kd was > 4 mM (inactive).
With `Cc1cc(C)n(C/C=C/Cn2nc(C)cc2C)n1` the Kd was > 4 mM (inactive).
`O=C1C[C@@H](c2ccc(O)cc2)Oc2cc(O)cc(O)c21` was tested, and the Kd was > 4 mM (inactive).
In the case of `NC(=O)c1ccsc1NC(=O)c1ccccc1[N+](=O)[O-]`, the Kd is reported as > 4 mM (inactive).
For `O=C1C2CCCCC2C(=O)N1Cc1cccnc1` (centres undefined), the Kd was > 4 mM (inactive).
In the case of `CCCSc1nnc2[nH]c(=O)cc(N)n12`, the Kd is reported as > 4 mM (inactive).
With `O=C1CSC(=O)N1CNc1ccccc1` the Kd was > 4 mM (inactive).
For `Cc1nc2ccccc2c(=O)n1CCCn1ccnc1`, the Kd was > 4 mM (inactive).
With `CC(=O)Nc1ccc2c(C)cc(=O)[nH]c2c1` the Kd was > 4 mM (inactive).
With `COc1ccc(-c2cc(=O)c3c(O)cc(O)c(-c4cc(-c5cc(=O)c6c(O)cc(O)cc6o5)ccc4OC)c3o2)cc1` the Kd was > 4 mM (inactive).
With `O=C1CSC(=O)N1CN1CCOCC1` the Kd was > 4 mM (inactive).
In the case of `CN1CCN(CC(=O)Nc2ccccc2)CC1`, the Kd is reported as > 4 mM (inactive).
In the case of `O=C1C[C@@H](c2ccccc2)Oc2cc(O)cc(O)c21`, the Kd is reported as > 4 mM (inactive).
`COc1ccc(CN2CCOCC2)c(C)c1C` was tested, and the Kd was > 4 mM (inactive).
`O=C1CCCc2c1nc(-c1ccccc1)n2O` was tested, and the Kd was > 4 mM (inactive).
For `CN(C)CCNC(CC(=O)Nc1ccccc1)C(=O)O` (centres undefined), the Kd was > 4 mM (inactive).
With `Fc1ccc(F)c(CN2CCN(c3ncccn3)CC2)c1` the Kd was > 4 mM (inactive).
For `Cc1c(C(=O)NC2=NCCS2)oc2ccccc12`, the Kd was > 4 mM (inactive).
